The record followed here is ChEMBL document CHEMBL1201862, “PubChem BioAssay data set” (2004).

Some test systems named below: SN12C; SK-OV-3; SW-620; K562; RPMI-8226; SK-MEL-2; ACHN; MOLT-4; NCI-H522; SNB-19; CAKI-1; T47D; HOP-62; RXF 393; M14; Malme-3M; MCF7; PC-3; A498.
Common to all, as to assay: DTP human tumour cell line panel, 48 h

Molecules are shown by their SMILES.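 Each compound was tested at five concentrations against cells in 96-well plates for 48 hours. GI50 = concentration required for 50% inhibition of growth.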 Calls of active or inactive are those of the source. Cut-off read from the data, not from the text of the source: active = GI50 up to about 1.1 µM and inactive = higher. Bounds are passed on as bounds.

By GI50 is commonly meant the concentration giving 50% growth inhibition. As to `CCc1cccc(CC)c1Nc1nc2c(s1)C(=O)c1ccccc1C2=O`, the GI50 in the assay with SN12C is 15.8 µM (inactive); in the assay with SK-OV-3 it was 27.3 µM (inactive); in the assay with SW-620, 26.1 µM (inactive); in the assay on K562 it was 28 µM (inactive); in the assay with RPMI-8226, 24.7 µM (inactive); with SK-MEL-2 it was 18.6 µM (inactive). In addition, the GI50 in the assay on ACHN was 17.6 µM (inactive); in the assay with MOLT-4, 23.2 µM (inactive); in the assay with NCI-H522 it was 23.4 µM (inactive); in the assay on SNB-19, 17 µM (inactive); in the assay on CAKI-1, 16.4 µM (inactive); in the assay with T47D, 33.6 µM (inactive). In addition, the GI50 was 16 µM (inactive) in the assay on HOP-62; 24.8 µM (inactive) in the assay on RXF 393; 17.4 µM (inactive) in the assay on M14; 16 µM (inactive) in the assay on Malme-3M; 22.4 µM (inactive) in the assay on MCF7; 13.3 µM (inactive) in the assay on PC-3. Also, the GI50 in the assay on A498 was > 10 µM (inactive).
Consider `CC(C)=CCC[C@@H](C)c1c2ncc[nH]c-2c(C)c(=O)c1O`, for which the GI50 with SN12C is 28.8 µM (inactive); in the assay with SK-OV-3, 31.8 µM (inactive); in the assay on SW-620, 33.1 µM (inactive); in the assay with K562 it was 21.7 µM (inactive); in the assay on RPMI-8226, 20 µM (inactive); in the assay on SK-MEL-2 it was 18.6 µM (inactive). Also, the GI50 in the assay with ACHN was 12.4 µM (inactive); in the assay on MOLT-4, 10.4 µM (inactive); in the assay on NCI-H522 it was 1.76 µM (inactive); in the assay on SNB-19, 25.9 µM (inactive); with CAKI-1, 35.1 µM (inactive); in the assay on T47D, 25.9 µM (inactive). In addition, the GI50 with HOP-62 is 19.2 µM (inactive); with RXF 393, 24.6 µM (inactive); with M14 it was 27.9 µM (inactive); in the assay on Malme-3M it was 13.8 µM (inactive); in the assay with MCF7 it was 36.8 µM (inactive); with PC-3, 35.2 µM (inactive). In the assay on A498, the GI50 is 30 µM (inactive).
In the case of `CN(C)Cc1cc(/N=N/c2ccccc2Cl)ccc1O`, the GI50 was 25.6 µM (inactive) with SN12C; 39.2 µM (inactive) in the assay on SK-OV-3; 13.3 µM (inactive) with SW-620; 16.7 µM (inactive) in the assay with K562; 23.7 µM (inactive) in the assay with RPMI-8226; 12.1 µM (inactive) in the assay on ACHN. The GI50 was 5.48 µM (inactive) in the assay on MOLT-4; 10.6 µM (inactive) in the assay on NCI-H522; 32.2 µM (inactive) with SNB-19; 15.1 µM (inactive) with CAKI-1; 17.7 µM (inactive) in the assay on T47D; 10.7 µM (inactive) in the assay with HOP-62. Also, the GI50 with RXF 393 was 20.3 µM (inactive); with M14, 19.3 µM (inactive); in the assay with Malme-3M, 12.6 µM (inactive); with MCF7, 16.8 µM (inactive); in the assay on PC-3, 27.5 µM (inactive); in the assay with A498, 12.7 µM (inactive).
Regarding `O=C(Cc1nc2ccccc2[nH]c1=O)c1c[nH]c2ccccc12`, the GI50 in the assay with SN12C was 13.8 µM (inactive); in the assay with SK-OV-3, 18.1 µM (inactive); in the assay with SW-620, 24.9 µM (inactive); in the assay on K562 it was 6.07 µM (inactive); in the assay with RPMI-8226 it was 6.92 µM (inactive); in the assay with SK-MEL-2 it was 10.1 µM (inactive). Moreover, the GI50 with ACHN is 10.5 µM (inactive); with MOLT-4 it was 6.01 µM (inactive); in the assay with NCI-H522, 14.8 µM (inactive); in the assay on SNB-19, 25.8 µM (inactive); in the assay with CAKI-1, 20.2 µM (inactive); with T47D it was 12.2 µM (inactive). The GI50 with HOP-62 is 21 µM (inactive); in the assay with RXF 393 it was 17.5 µM (inactive); in the assay on M14, 15.3 µM (inactive); in the assay on Malme-3M it was 32.9 µM (inactive); with MCF7 it was 11.6 µM (inactive); in the assay on PC-3, 10.5 µM (inactive). In addition, the GI50 in the assay with A498 is 14.7 µM (inactive).
With `O=C1CN2CCN(CC2)CC(=O)Nc2ccc(cc2)S(=O)(=O)c2ccc(cc2)NC(=O)CN2CCN(CC2)CC(=O)Nc2ccc(cc2)S(=O)(=O)c2ccc(cc2)N1`, the GI50 was > 97.5 µM (inactive) with SN12C; > 100 µM (inactive) with SK-OV-3; 14.1 µM (inactive) with SW-620; 15.8 µM (inactive) in the assay on K562; 10.1 µM (inactive) with RPMI-8226; > 71.1 µM (inactive) in the assay with SK-MEL-2. Further, the GI50 in the assay on ACHN is 66.4 µM (inactive); in the assay on MOLT-4 it was 6.81 µM (inactive); in the assay with NCI-H522 it was 4.71 µM (inactive); in the assay on SNB-19, > 100 µM (inactive); with CAKI-1 it was > 47.8 µM (inactive); with T47D it was 67.6 µM (inactive). The GI50 is 44.4 µM (inactive) in the assay on HOP-62; 55.2 µM (inactive) in the assay on RXF 393; 25.4 µM (inactive) in the assay on M14; 15.8 µM (inactive) in the assay on Malme-3M; 18.1 µM (inactive) in the assay on MCF7; > 100 µM (inactive) with PC-3. Further, the GI50 in the assay with A498 is > 100 µM (inactive).
`OCCN(CO)CO`: the GI50 was > 100 µM (inactive) in the assay with SN12C; > 100 µM (inactive) with SK-OV-3; > 100 µM (inactive) in the assay on SW-620; > 100 µM (inactive) with K562; 86.5 µM (inactive) in the assay with RPMI-8226; > 100 µM (inactive) with SK-MEL-2. In addition, the GI50 in the assay on ACHN, with NCI-H522, in the assay with SNB-19, with CAKI-1, in the assay on T47D and with HOP-62 was > 100 µM (inactive) each time. For the same compound, the GI50 with RXF 393, with M14, with Malme-3M, with MCF7, in the assay on PC-3 and with A498 was > 100 µM (inactive) in each case.
Turning to `COc1ccc(C(=O)c2ccc(-n3cc(/C=C/[N+](=O)[O-])c4ccccc43)cc2)cc1`, the GI50 with SN12C was 16.8 µM (inactive); in the assay on SK-OV-3, 23.6 µM (inactive); with SW-620, 3.69 µM (inactive); in the assay with K562, 6.53 µM (inactive); in the assay with RPMI-8226, 3.08 µM (inactive); in the assay on SK-MEL-2, 23.1 µM (inactive). Moreover, the GI50 in the assay with ACHN was 20.1 µM (inactive); in the assay on MOLT-4, 4.81 µM (inactive); with NCI-H522, 15.4 µM (inactive); in the assay on SNB-19, 30.2 µM (inactive); in the assay with CAKI-1, 19.1 µM (inactive); in the assay with T47D, 2.07 µM (inactive). Further, the GI50 in the assay with HOP-62 was 16.1 µM (inactive); in the assay on RXF 393, 5.45 µM (inactive); with M14, 29 µM (inactive); in the assay on Malme-3M it was 20.2 µM (inactive); in the assay with MCF7 it was 9.08 µM (inactive); in the assay on PC-3, 18.8 µM (inactive). Further, in the assay with A498, the GI50 is 22.4 µM (inactive).
Consider `COc1ccc([C@]23CCC4(OCC(C)(C)CO4)[C@H]4CON(O[C@H](O[C@@H]5CCCCC5C(C)(C)c5ccccc5)C2)[C@@H]43)cc1OC` (stereo partly drawn), for which the GI50 is 61.1 µM (inactive) with SN12C; 78.3 µM (inactive) in the assay with SK-OV-3; 36.4 µM (inactive) with SW-620; 21.5 µM (inactive) with K562; 26.9 µM (inactive) in the assay on RPMI-8226; 47.1 µM (inactive) with SK-MEL-2. Moreover, the GI50 in the assay with MOLT-4 is 17.7 µM (inactive); in the assay with NCI-H522, 27 µM (inactive); in the assay on SNB-19, 61.7 µM (inactive); in the assay on CAKI-1, 13.6 µM (inactive); in the assay with T47D, 20.2 µM (inactive); with HOP-62 it was 97.3 µM (inactive). Moreover, the GI50 was 25.4 µM (inactive) with RXF 393; 35.6 µM (inactive) in the assay on M14; 56.6 µM (inactive) in the assay with Malme-3M; 30.1 µM (inactive) in the assay on MCF7; 39.6 µM (inactive) in the assay with PC-3; 48.1 µM (inactive) with A498.
As for `CC(=O)c1sc2c(c1OC(=O)c1cccs1)c(=O)n(-c1ccccc1)c(=S)n2-c1ccccc1`, the GI50 is 3.94 µM (inactive) with SN12C; 21.9 µM (inactive) in the assay with SK-OV-3; 22.4 µM (inactive) in the assay on SW-620; 35.4 µM (inactive) in the assay on K562; 4.32 µM (inactive) in the assay on RPMI-8226; 3.54 µM (inactive) in the assay with ACHN. Also, the GI50 was 20.3 µM (inactive) in the assay on MOLT-4; 0.359 µM (active) with NCI-H522; 12.5 µM (inactive) in the assay on SNB-19; 30.8 µM (inactive) with CAKI-1; 15.9 µM (inactive) in the assay with T47D; 17 µM (inactive) with HOP-62. The GI50 in the assay on RXF 393 is 3.86 µM (inactive); in the assay with M14, 3.24 µM (inactive); in the assay with Malme-3M, 2.8 µM (inactive); in the assay with MCF7, 21 µM (inactive); with PC-3 it was 3.63 µM (inactive); with A498 it was 4.71 µM (inactive).
For `O=C1c2ccccc2-c2cc([N+](=O)[O-])c([N+](=O)[O-])cc21`, the GI50 in the assay on SN12C was 1.86 µM (inactive); in the assay on SK-OV-3 it was 2.66 µM (inactive); in the assay with SW-620, 1.58 µM (inactive); in the assay with K562, 2.16 µM (inactive); in the assay with RPMI-8226, 1.04 µM (active); with SK-MEL-2 it was 1.87 µM (inactive). Also, the GI50 with ACHN was 1.68 µM (inactive); with MOLT-4, 0.482 µM (active); with NCI-H522, 1.05 µM (active); with SNB-19, 1.71 µM (inactive); in the assay on CAKI-1, 2.47 µM (inactive); with T47D, 0.748 µM (active). For the same compound, the GI50 is 1.58 µM (inactive) with HOP-62; 1.33 µM (inactive) in the assay with RXF 393; 1.77 µM (inactive) in the assay on M14; 1.91 µM (inactive) with Malme-3M; 1.38 µM (inactive) in the assay on MCF7; 1.55 µM (inactive) in the assay on PC-3. Moreover, the GI50 in the assay with A498 is 17.2 µM (inactive).
Consider `CSc1c(C#N)c(O)nc(N)c1C(=O)Nc1ccc(C)cc1`, for which the GI50 in the assay on SN12C, in the assay on SK-OV-3, in the assay with SW-620, with K562, with RPMI-8226 and in the assay on SK-MEL-2 was > 100 µM (inactive) in each case. Besides, the GI50 with MOLT-4 is > 100 µM (inactive); in the assay with NCI-H522 it was 71.9 µM (inactive); in the assay on SNB-19, > 100 µM (inactive); with CAKI-1, 32.2 µM (inactive); in the assay on T47D, > 100 µM (inactive); in the assay on RXF 393, > 100 µM (inactive). Besides, the GI50 was > 100 µM (inactive) with M14; > 100 µM (inactive) in the assay with Malme-3M; > 100 µM (inactive) with MCF7; > 100 µM (inactive) in the assay on PC-3; 38.9 µM (inactive) with A498.
